Measurements reported in patent US20150064273A1, “Mesenchymal Stem Cells Conditioned Medium and Methods of Generating and Using the Same” (Gamida-Cell Ltd., priority 2012, published 2015).

What was measured:
Type in all cases: cell-based
mesenchymal stem cells [1] = test: Mesenchymal stem cell culture with growth factors with or without nicotinamide, cell counts
Description: Isolation: Bone marrow derived and adipose tissue derived mesenchymal cells were isolated based on their plastic adherence potential in expansion medium containing: High glucose DMEM and 10% Fetal Bovine Serum (FBS, Hyclone, Logan, Utah, USA) supplemented with 0.05 mg/ml Gentamicin (Sigma) and 2 mM L-glutamine (Biological Industries, Israel). Cells were allowed to adhere for 3-4 days and non-adherent cells were washed out with medium changes. The medium was further exchanged with fresh medium every 3-4 days.
Maintenance and expansion: Once adherent cells reached approximately 80-90% confluency, they were detached with 0.25% trypsin-EDTA (Sigma), washed twice in DMEM and 10% Fetal Bovine Serum, with centrifugation, 400 g, 5 minutes, and re-plated at a 1:2 to 1:1000 dilution under the same culture conditions.
Measurement of number of cells in culture: Cell number was measured using Cedex Automated Cell Counter (Innovatis). The cells were diluted 1:2 in Trypan Blue (Sigma) and cell number was measured automatically under microscope.
Treatment of mesenchymal cultures with nicotinamide: Mesenchymal cultures were initiated as described above, and supplemented with nicotinamide 1-15 mM alone, or in combination with growth factors or growth factors alone, incubated at 37° C. in a humidified atmosphere of 5% CO2 in air. At each passage and at each medium exchange, the cultures were supplemented with mesenchymal medium, nicotinamide and growth factors.
Mesenchymal stem cells were selected and cultured in the presence of particular growth factors (basic fibroblast growth factor—bFGF, heparin binding epidermal growth factor—HB-EGF, fibroblast growth factor 4—FGF-4 and platelet derived growth factor, homodimer, subunit B, PDGF-BB) in the presence and absence of nicotinamide for three or four passages and the number and size of the cells was calculated.
Two concentrations (10 and 50 ng/ml) of each one of the following factors were examined.
In addition, the influence of the combination: 5 mM NAM+50 ng/ml FGF4+50 ng/ml PDGF-BB was examined in comparison to an individual supplement.

mesenchymal stem cells [2] = test: MSC cell size (Cedex cell counter) and granularity (side scatter FACS)
Description: Measurement of cell size: Cell size was measured using Cedex Automated Cell Counter (Innovatis). The cells were diluted 1:2 in Trypan Blue (Sigma) and cell size was measured automatically under microscope. Measurement of granularicity: Following trypsin treatment, the cells were analyzed for granularicity by side scatter FACS.

[3] = system: adipose derived mesenchymal stem cells; test: Adipose tissue derived MSC expansion and cell size with nicotinamide, with or without FGF4; details: 5 mM NAM, 50 ng/ml FGF4
Description: FIG. 15 is a graph illustrating the effect of nicotinamide, with and without FGF4 on adipose-derived MSC proliferation, through 4 passages of culture. Adipose derived mesenchymal stem cells were isolated using collagenase digestion and plastic adherence method, and cultured for several passages with fetal bovine serum. −NAM−FGF4=controls (blue diamonds), +NAM−FGF4=culture with 5 mM NAM (red squares), +NAM+FGF4=culture with 50 ng/ml FGF4 and 5 mM NAM (green triangles). Note the synergic effect of Nicotinamide and FGF4 added together on adipose-derived MSC proliferation; FIG. 16 is a graph detailing the effect of nicotinamide, with and without FGF4 on nucleated cell proliferation in adipose-derived MSC proliferation at passage 4. Adipose-derived mesenchymal stem cells were isolated and cultured as described in FIG. 15. −NAM−FGF4=controls, +NAM−FGF4=culture with 5 mM NAM, +NAM+FGF4=culture with 50 ng/ml FGF4 and 5 mM NAM. […] Cell size was analyzed by Cedex cell counter. −NAM−FGF4=controls, +NAM−FGF4=culture with 5 mM NAM, +NAM+FGF4=culture with 50 ng/ml FGF4 and 5 mM NAM. Note the smaller size of MSC cells grown in the presence of nicotinamide, and even smaller MSCs grown with nicotinamide and FGF4; Proliferation and cell size distribution in adipose-derived mesenchymal stem cells cultured with nicotinamide with or without additional FGF4 was assessed in up to 4 passages of the cultures.

mesenchymal stem cells [4] = test: Senescence evaluation assay of cultured MSCs; details: MSCs cultured with nicotinamide
Description: Senescence evaluation assay: Cultured MSCs were stained using the Senescence beta-Galactosidase Staining Kit (Cell Signaling). The cells are fixed and stained for detection of beta-Galactosidase activity at pH 6 using X-Gal and incubation overnight in 37° C. in dry incubator.

[5] = system: Transforming Growth Factor-β (TGFβ); test: TGFβ content of MSC conditioned medium by ELISA; details: passage 4; 5 mM NAM, 50 ng/ml FGF4; serum- and FGF4-free medium for 24 hours
Description: (§1) FIG. 23 is a bar graph illustrating enhancement of Transforming Growth Factor-β (TGFβ) content of conditioned medium from nicotinamide and FGF4-treated MSC cultures. Bone marrow mesenchymal stem cells were isolated and cultured as in FIG. 22 above. Cultured media was changed to medium without fetal bovine serum or FGF4 24 hours prior to passage 4, collected from the passage 4 cultures and assayed for TGFβ content by ELISA. −NAM, −FGF4=control; +NAM−FGF4=5 mM NAM, +NAM+FGF4=5 mM NAM+50 ng/ml FGF4. Note the significant effect of combined FGF4 and nicotinamide on TGFβ secretion; Mesenchymal stem cells cultured with nicotinamide and FGF4 have enhanced expansion potential, and maintain an undifferentiated state, compared to mesenchymal stem cells cultured in unsupplemented medium, or mesenchymal stem cells cultured with added nicotinamide alone. In order to assess whether mesenchymal stem cells cultured with nicotinamide or nicotinamide and FGF4 modify the culture medium in a unique manner, secretion of biologically active molecules into the culture medium was measured by ELISA, after depletion of the FGF4 from the medium.

[6] = system: Keratinocyte Growth Factor (KGF); test: KGF content of MSC conditioned medium by ELISA; details: passage 4; 5 mM NAM, 50 ng/ml FGF4; serum- and FGF4-free medium for 24 hours
Description: as §1, with “24” for “23”, “Keratinocyte” for “Transforming”, “Factor (KGF)” for “Factor-β (TGFβ)”, “KGF” for “TGFβ”

## NC(=O)c1cccnc1 [nicotinamide, Nicotinamide]
Mesenchymal stem cells [1]; 5 mM NAM with FGF4 50 ng/ml
  effect on the ability of FGF4 to increase proliferation of mesenchymal stem cells: potentiating effect
Mesenchymal stem cells [1]; cultured with nicotinamide
  proliferative capacity of large batches of MSCs: enhanced proliferative capacity
Mesenchymal stem cells [2]; FGF4 50 ng/ml, NAM 5 mM, Cedex cell counter
  cell size / undifferentiated state of MSCs cultured with FGF4: preserves the undifferentiated state
Mesenchymal stem cells [2]; identical conditions without nicotinamide as comparison
  cell size and granularity of MSCs grown with nicotinamide vs without: smaller and less granular
[3]; Cedex cell counter
  size of the expanded adipose-derived mesenchymal stem cells: enhanced growth of populations of smaller (less differentiated) cells
[3]; up to 4 passages
  adipose derived mesenchymal stem cell expansion in culture: substantially improved
Mesenchymal stem cells [4]
  number of senescent cells following culture: reduced
[5]
  TGF-β level in conditioned medium: elevated levels
[6]
  KGF level in conditioned medium: elevated levels
